Assay: Time activity analysis of organ activity (biodistribution, therapy study and SPECT/CT data pooled)
Format: in vivo, NOD/SCID mice
Procedure: For biodistribution, animals imaged at 4 h p.i. were killed 24 h p.i., while the ones scanned 24 h p.i. were killed 5 days p.i.. Subsequently, organs were excised, weighed, and assayed for radioactivity in a gamma counter. Mean tumour and organ uptake was determined from decay-corrected tissue radioactivity normalized to injected dose and tissue sample weight (%ID/g tissue wet weight).
All statistical analyses were performed using the Graph-Pad Prism software (Version 9.1.1). Biodistribution data is expressed as mean ± standard deviation. Kaplan–Meier Survival curve was analysed using survival analysis (Log rank Mantel-Cox test). The data points of the normalized tumour volume as a function of the time of the groups (Control, ^125I-PARPi, Control—excluded ulcers, ^125I-PARPi—excluded ulcers) were subjected to nonlinear regression analysis using the exponential growth formula Y = Y0*exp(k*x) (Malthusian). Accordingly, the doubling time is equal to ln(2)/k. […] During regression analysis, the best-fit value k was compared between two datasets each using the extra sum-of-squares F test, testing the null hypothesis that k is the same for both datasets. Time activity analysis was performed using nonlinear exponential decay curve fitting and area under the curve was computed using the Graph-Pad Prism software. The area under the curve is expressed as total peak area ± standard error. For statistical analysis of fluorescent signals, unpaired t-test was used.
Auger emitter-based therapeutic effect was assessed upon application of [^125I]PARPi-01 in 4 doses (8.15 ± 2.96 MBq/dose) with 10 days between each dose in subcutaneous MDA-MB-231 models (Fig. 3A). The fractionated therapy was designed based on two recent publications. In the study by Riad et al., a good tumour response without severe toxicity in normal tissue after application of 30 MBq ^125I-labeled PARPi was shown. […] Furthermore we observed DNA damage upon low dose PARPi application in our in-vitro experiments in the MDA-MB-231 cell line. […] To avoid any handling bias in calliper measurements, only CT-image-based tumour growth was analysed. […] A significant delay in tumour growth was observed upon [^125I]PARPi-01 treatment showing doubling time of 14.2 d (95% CI: 12.6 d to 16.1 d) (Fig. 3B, Additional file 1: Fig. S3). Comparing the treatment group with the control (with and without exclusion of animals with ulcers) we could see a significant difference between the k values (P < 0.0001 and P = 0.0038, respectively) and thus also the doubling time. […] A significant portion of the mice in both the control group and the therapy group were sacrificed due to reaching humane endpoints not related to tumour size. 2 mice were sacrificed due to ascites and 10 mice were sacrificed due to ulcer formation on the tumour site. […] Considering only this selection of mice, median survival time was 35 and 38 for control and therapy mice, respectively. Since, as shown for ^177Lu labelled tracer, data (SUV, concentration) calculated based on SPECT images correlate with those obtained by gamma counting, liver, tumour, and muscle were excised for subsequent gamma counter measurements. To obtain the time activity curve and tracer retention time in each organ, the decay corrected activity (%ID/g) from the biodistribution study, therapy study and also organ activity calculated from SPECT/CT images at 4 h and 24 h p.i. were taken together and plotted over time for liver (Fig. 3D), tumour (Fig. 3E) and muscle (Fig. 3F). Tracer uptake in liver was at a peak of 3.84%ID/g at 4 h p.i. and dropped over time to 0.411%ID/g (8d p.i.). […] The peak uptake of muscle was only 0.186%ID/g at 4 h p.i. and decreased to 0.002%ID/g at 8 d p.i. The overall area under the curve (retention time) in tumour was 26.53 ± 2.35 h/g as opposed to a liver retention of 284 ± 45.02 h/g, whereas the retention time of muscle was only 5.918 ± 0.98 h/g.

[1] = total peak area ± standard error

O=C(c1ccc([125I])cc1)N1CCN(C(=O)c2cc(Cc3n[nH]c(=O)c4ccccc34)ccc2F)CC1 [[^125I]PARPi-01]
tracer accumulation in tumour (4 h p.i.): 0.7219 %ID/g | tracer uptake in liver (4 h p.i. (peak)): 3.84 %ID/g | uptake of muscle (4 h p.i. (peak)): 0.186 %ID/g | tracer accumulation in tumour (24 h): 0.2 % ID/g | tracer accumulation in tumour (8 days): 0.02% | tracer uptake in liver (8 d p.i.): 0.411 %ID/g | uptake of muscle (8 d p.i.): 0.002 %ID/g | area under the curve (retention time) in liver [1]: 284 ± 45.02 h/g | area under the curve (retention time) in muscle [1]: 5.918 ± 0.98 h/g | area under the curve (retention time) in tumour [1]: 26.53 ± 2.35 h/g
